Measurements taken from patent US12030875B2, “EIF4E inhibitors and uses thereof” (PIC Therapeutics, Inc., priority 2018, dated 2024).

The compounds below were run against T1, Human eIF4E (Homo sapiens, UniProt P06730) (assay: Human eIF4E/4G2 binding assay (TR-FRET)). Conditions: eIF4E (aa 28-217) with biotin labeled 4G2 peptide.
T1 construct: Human eIF4E (aa 28-217) with a C-terminal His-tag; made in house
T1 sequence (P06730 28-217): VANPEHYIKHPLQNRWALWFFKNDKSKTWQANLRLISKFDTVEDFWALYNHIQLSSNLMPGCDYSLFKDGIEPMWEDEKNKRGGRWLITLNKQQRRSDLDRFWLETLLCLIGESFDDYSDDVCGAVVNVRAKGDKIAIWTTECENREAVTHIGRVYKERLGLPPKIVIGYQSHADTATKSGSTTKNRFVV
Outline: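 His-tagged human eIF4E (aa 28-217), refolded from E. coli inclusion bodies, at 82.5 nM working stock; compounds in 10-point 2-fold DMSO series, preincubated 15 min at RT in 50 mM NaPi pH 6.5, 50 mM KCl, 1 mM DTT. Biotin-4G2 peptide added, 15 min, then Eu-streptavidin/APC-anti-His, 20 min; normalized 665/615 nm TR-FRET signal; IC50 by curve fit.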
Compound `O=C(O)C1CN(c2nc(-c3ccc(Oc4ccccc4)cc3)c(-c3ccccc3)s2)C1` [Compound I-158] has an IC50 of less than 5 µM. Work on `CCCC(CNc1nc(-c2ccc(-c3ccc(F)cc3)cc2)c(Br)s1)C(=O)O` (centres unmarked) [Compound I-88] yielded an IC50 of 5 to 25 µM. For `CC(C)C(CC(=O)O)Nc1nc(-c2ccccc2)c(-c2ccc(-c3cnco3)cc2)s1` (centres unmarked) [Compound I-1], the IC50 was greater than 25 µM. With `CC(C)C(CC(=O)O)Nc1nc(-c2ccc(-c3ccc(F)cc3)cc2)c(-c2ccccc2)s1` (centres unmarked) [Compound I-66] the IC50 was less than 5 µM. In the case of `CC(C)(CNc1nc(-c2ccc(-c3ccc(F)cc3)cc2)c(-c2cccnc2)s1)C(=O)O` [Compound I-74], the IC50 is reported as 5 to 25 µM. Compound `CC1(C(=O)O)CCCN(c2nc(-c3ccc(Oc4ccccc4)cc3)c(-c3ccccc3)s2)C1` (centres unmarked) [Compound I-217] has an IC50 of less than 5 µM. `O=C(O)C1CCN(c2nc(-c3ccc(Oc4ccccc4)cc3)c(-c3cccc4[nH]ccc34)s2)CC1` [Compound I-212] gave an IC50 of 5 to 25 µM. Work on `O=C(O)C1CC(CNc2nc(-c3ccc(-c4ccc(F)cc4)cc3)cs2)C1` (centres unmarked) [Compound I-126] yielded an IC50 greater than 25 µM. For `CC(CNc1nc(-c2cncnc2)c(-c2ccc(-c3ccc(F)cc3)cc2)s1)C(=O)O` (centres unmarked) [Compound I-102], the IC50 was greater than 25 µM. Work on `O=C(O)C1CCN(c2nc(-c3ccc(Oc4ccccc4)cc3)c(-c3ccccc3)s2)CC1` [Compound I-209] yielded an IC50 of less than 5 µM. `CC(C)C(CC(=O)O)Nc1nc(-c2ccc(Oc3ccccc3)cc2)c(-c2ccccc2)s1` (centres unmarked) [Compound I-149] gave an IC50 of 5 to 25 µM. Work on `CC(C)(CNc1nc(-c2ccc(Oc3ccccc3)cc2)c(-c2cccc3[nH]ccc23)s1)C(=O)O` [Compound I-157] yielded an IC50 of 5 to 25 µM. `CCCC(CNc1nc(-c2cccnc2)c(-c2ccc(-c3cnco3)cc2)s1)C(=O)O` (centres unmarked) [Compound I-20] was tested, and the IC50 was greater than 25 µM. In the case of `O=C(O)C1CN(c2nc(-c3ccc(-c4cnco4)cc3)c(-c3cccnc3)s2)CCO1` (centres unmarked) [Compound I-58], the IC50 is reported as greater than 25 µM. For `CCCC(CNc1nc(-c2ccc(-c3ccc(F)cc3)cc2)c(-c2cccc3[nH]ccc23)s1)C(=O)O` (centres unmarked) [Compound I-92], the IC50 was 5 to 25 µM. For `CC(C)C(CC(=O)O)Nc1nc(-c2ccc(-c3ccc(F)cc3)cc2)c(-c2cncnc2)s1` (centres unmarked) [Compound I-67], the IC50 was greater than 25 µM. In the case of `O=C(O)C1(CNc2nc(-c3ccc(-c4cnco4)cc3)c(-c3cccnc3)s2)CC1` [Compound I-46], the IC50 is reported as greater than 25 µM. In the case of `O=C(O)C1CN(c2nc(-c3ccc(-c4ccc(F)cc4)cc3)c(-c3cccc4[nH]ccc34)s2)C1` [Compound I-80], the IC50 is reported as 5 to 25 µM. `CC(CNc1nc(-c2ccc(Oc3ccccc3)cc2)c(-c2cncnc2)s1)C(=O)O` (centres unmarked) [Compound I-178] was tested, and the IC50 was greater than 25 µM. `O=C(O)C1CCCN(c2nc(-c3ccc(Oc4ccccc4)cc3)c(-c3cccc4[nH]ccc34)s2)C1` (centres unmarked) [Compound I-185] was tested, and the IC50 was less than 5 µM. `CC(C)C(CC(=O)O)Nc1nc(-c2ccc(-c3cnco3)cc2)c(-c2cccc3[nH]ccc23)s1` (centres unmarked) [Compound I-4] showed an IC50 greater than 25 µM. `O=C(O)CC1CCCN1c1nc(-c2ccc(-c3cnco3)cc2)c(-c2cccnc2)s1` (centres unmarked) [Compound I-38] showed an IC50 greater than 25 µM. With `CC(CC(=O)O)Nc1nc(-c2ccc(Oc3ccccc3)cc2)c(-c2cncnc2)s1` (centres unmarked) [Compound I-173] the IC50 was greater than 25 µM. `CC(C)(CNc1nc(-c2ccc(-c3ccc(F)cc3)cc2)c(-c2cncnc2)s1)C(=O)O` [Compound I-73] showed an IC50 greater than 25 µM. In the case of `CC(C)(CNc1nc(-c2ccc(-c3cnco3)cc2)c(-c2cncnc2)s1)C(=O)O` [Compound I-6], the IC50 is reported as greater than 25 µM. `CC1(C(=O)O)CCCN(c2nc(-c3ccc(-c4cnco4)cc3)c(-c3cncnc3)s2)C1` (centres unmarked) [Compound I-61] showed an IC50 greater than 25 µM. `O=C(O)C1CN(c2nc(-c3ccc(Oc4ccccc4)cc3)c(-c3cccnc3)s2)C1` [Compound I-160] was tested, and the IC50 was greater than 25 µM. `O=C(O)C1CCCN(c2nc(-c3ccc(-c4ccc(F)cc4)cc3)c(-c3ccccc3)s2)C1` (centres unmarked) [Compound I-106] was tested, and the IC50 was less than 5 µM. `CC1(C(=O)O)CN(c2nc(-c3ccc(-c4cnco4)cc3)c(-c3cccnc3)s2)C1` [Compound I-15] gave an IC50 greater than 25 µM. With `CC(CNc1nc(-c2ccc(Oc3ccccc3)cc2)c(-c2cccnc2)s1)C(=O)O` (centres unmarked) [Compound I-179] the IC50 was greater than 25 µM. `CC1(C(=O)O)CN(c2nc(-c3ccc(Oc4ccccc4)cc3)c(-c3cncnc3)s2)C1` [Compound I-164] gave an IC50 greater than 25 µM. In the case of `O=C(O)CC1CCCN1c1nc(-c2ccc(-c3cnco3)cc2)c(-c2cccc3[nH]ccc23)s1` (centres unmarked) [Compound I-39], the IC50 is reported as greater than 25 µM. In the case of `CCCC(CNc1nc(-c2cncnc2)c(-c2ccc(-c3cnco3)cc2)s1)C(=O)O` (centres unmarked) [Compound I-19], the IC50 is reported as greater than 25 µM. `O=C(O)C1CC(CNc2nc(-c3ccc(Oc4ccccc4)cc3)c(-c3ccccc3)s2)C1` (centres unmarked) [Compound I-201] was tested, and the IC50 was less than 5 µM. Work on `O=C(O)C1CCN(c2nc(-c3ccc(-c4ccc(F)cc4)cc3)c(-c3cccnc3)s2)C1` (centres unmarked) [Compound I-118] yielded an IC50 greater than 25 µM. With `CC1(C(=O)O)CN(c2nc(-c3ccc(-c4ccc(F)cc4)cc3)cs2)C1` [Compound I-81] the IC50 was greater than 25 µM. Compound `CC(CNc1nc(-c2ccc(Oc3ccccc3)cc2)c(-c2ccccc2)s1)C(=O)O` (centres unmarked) [Compound I-177] has an IC50 of 5 to 25 µM. With `CC1(C(=O)O)CN(c2nc(-c3ccc(-c4ccc(F)cc4)cc3)c(Br)s2)C1` [Compound I-82] the IC50 was 5 to 25 µM. `CC1(C(=O)O)CCCN(c2nc(-c3ccc(-c4ccc(F)cc4)cc3)c(-c3cccnc3)s2)C1` (centres unmarked) [Compound I-146] showed an IC50 of 5 to 25 µM. Compound `O=C(O)C1CCN(c2nc(-c3ccc(-c4ccc(F)cc4)cc3)c(-c3cncnc3)s2)CC1` [Compound I-137] has an IC50 greater than 25 µM. `Cc1sc(NCC(C)C(=O)O)nc1-c1ccc(-c2ccc(F)cc2)cc1` (centres unmarked) [Compound I-230] was tested, and the IC50 was 5 to 25 µM. For `O=C(O)C1CCCN(c2nc(-c3ccc(Oc4ccccc4)cc3)cs2)C1` (centres unmarked) [Compound I-181], the IC50 was greater than 25 µM. Work on `CC(C)C(CC(=O)O)Nc1nc(-c2cccnc2)c(-c2ccc(-c3cnco3)cc2)s1` (centres unmarked) [Compound I-3] yielded an IC50 greater than 25 µM. For `CC(CC(=O)O)Nc1nc(-c2ccc(Oc3ccccc3)cc2)c(-c2cccnc2)s1` (centres unmarked) [Compound I-174], the IC50 was greater than 25 µM. In the case of `CC1(C(=O)O)CN(c2nc(-c3ccc(-c4ccc(F)cc4)nc3)c(-c3cncnc3)s2)C1` [Compound I-84], the IC50 is reported as greater than 25 µM. `CC(C)(CNc1nc(-c2ccc(Oc3ccccc3)cc2)cs1)C(=O)O` [Compound I-153] showed an IC50 greater than 25 µM. For `O=C(O)C1CC(CNc2nc(-c3ccc(Oc4ccccc4)cc3)c(-c3cccc4[nH]ccc34)s2)C1` (centres unmarked) [Compound I-204], the IC50 was 5 to 25 µM. `O=C(O)C1CN(c2nc(-c3ccc(-c4ccc(F)cc4)cc3)c(-c3cncnc3)s2)CCO1` (centres unmarked) [Compound I-141] was tested, and the IC50 was greater than 25 µM. `CC(C)(CC(=O)O)Nc1nc(-c2ccc(Oc3ccccc3)cc2)c(-c2cncnc2)s1` [Compound I-150] was tested, and the IC50 was greater than 25 µM. In the case of `O=C(O)C1CN(c2nc(-c3ccc(Oc4ccccc4)cc3)c(-c3cncnc3)s2)C1` [Compound I-159], the IC50 is reported as greater than 25 µM. `CC(CC(=O)O)Nc1nc(-c2ccc(-c3cnco3)cc2)c(-c2cccc3[nH]ccc23)s1` (centres unmarked) [Compound I-25] was tested, and the IC50 was greater than 25 µM. `O=C(O)C1CCCN(c2nc(-c3ccc(Oc4ccccc4)cc3)c(-c3ccccc3)s2)C1` (centres unmarked) [Compound I-182] gave an IC50 of less than 5 µM. Compound `CC1(C(=O)O)CCCN(c2nc(-c3ccc(Oc4ccccc4)cc3)c(-c3cncnc3)s2)C1` (centres unmarked) [Compound I-218] has an IC50 greater than 25 µM. `O=C(O)C1(CNc2nc(-c3ccc(-c4ccc(F)cc4)cc3)c(-c3cncnc3)s2)CC1` [Compound I-123] gave an IC50 greater than 25 µM. Work on `CC(CC(=O)O)Nc1nc(-c2ccc(-c3cnco3)cc2)c(-c2ccccc2)s1` (centres unmarked) [Compound I-22] yielded an IC50 greater than 25 µM. `O=C(O)C1CCN(c2nc(-c3ccc(Oc4ccccc4)cc3)c(-c3cccnc3)s2)CC1` [Compound I-211] gave an IC50 greater than 25 µM.
